In PubChem BioAssay (NCI) one finds GI50 and TGI data, which are given here for ten compounds.

Where “and” joins values, the source holds several entries; their conditions need not be identical. Equal values may be shown once.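 Values below derive from 48-hour exposures of cells grown in 96-well plates, with endpoints linearly interpolated between the two concentrations bracketing the appropriate inhibition level. GI50: concentration for 50% inhibition of growth. TGI is the concentration that stops growth completely.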 A value given as a limit tells only on which side of the number the result lay.

Among the test systems are MALME-3M melanoma; CCRF-CEM leukemia; HL-60(TB) leukemia; CAKI-1 renal; OVCAR-5 ovarian; SNB-19 CNS; SNB-75 CNS; LOX IMVI melanoma; SK-MEL-2 melanoma; U251 CNS.
Holding throughout (experiment): inhibition of tumour cell growth, NCI panel, 48 h

With `CCCCCc1c(C)[nH]c(/C=C2\N=C(c3ccc[nH]3)C=C2Oc2ccc(Cl)cc2)c1C`, the GI50 in the assay on MALME-3M melanoma was 0.337 µM and 0.129 µM; with CCRF-CEM leukemia it was 0.0392 µM and < 0.01 µM; with HL-60(TB) leukemia, 0.213 µM and 0.0637 µM; in the assay with CAKI-1 renal, 0.148 µM and 0.0343 µM; in the assay on OVCAR-5 ovarian, 0.142 µM and 0.0383 µM; with SNB-19 CNS, 0.268 µM and 0.173 µM. For the same compound, the GI50 is 0.112 µM and 0.0375 µM in the assay on SNB-75 CNS; 0.0204 µM and < 0.01 µM in the assay on LOX IMVI melanoma; 0.0578 µM and 0.0293 µM in the assay with SK-MEL-2 melanoma; 0.0658 µM and 0.019 µM in the assay with U251 CNS. The TGI was 1.6 µM and 1.54 µM in the assay on MALME-3M melanoma; greater than 100 µM in the assay with CCRF-CEM leukemia; 1.48 µM and 1.01 µM with HL-60(TB) leukemia; 0.542 µM and 0.312 µM in the assay with CAKI-1 renal; 4.26 µM in the assay on OVCAR-5 ovarian; 4.33 µM in the assay on SNB-19 CNS. Moreover, the TGI in the assay on SNB-75 CNS was 0.553 µM and 0.431 µM; in the assay on LOX IMVI melanoma it was 0.046 µM and 0.0473 µM; with SK-MEL-2 melanoma, 0.23 µM and 0.108 µM; in the assay on U251 CNS, 0.749 µM and 0.192 µM.

For the compound `Nc1nc(Nc2cccc(F)c2)nc2ccccc12`, the GI50 with MALME-3M melanoma was 18.6 µM; in the assay on CCRF-CEM leukemia it was 24.6 µM; in the assay on HL-60(TB) leukemia, 25.5 µM; in the assay with CAKI-1 renal, 16 µM; in the assay with OVCAR-5 ovarian, 17.4 µM; in the assay on SNB-19 CNS, 35.3 µM. The GI50 in the assay on SNB-75 CNS is 15.8 µM; in the assay with LOX IMVI melanoma, 15.5 µM; in the assay with SK-MEL-2 melanoma, 25.3 µM; with U251 CNS it was 16.8 µM. Moreover, the TGI in the assay with MALME-3M melanoma was 37.5 µM; in the assay with CCRF-CEM leukemia, greater than 100 µM; in the assay with HL-60(TB) leukemia, 68.4 µM; in the assay with CAKI-1 renal, 44.9 µM; in the assay on OVCAR-5 ovarian, 43.5 µM; with SNB-19 CNS, greater than 100 µM. Besides, the TGI stood at 50.4 µM with SNB-75 CNS, 29 µM in the assay with LOX IMVI melanoma, 48.8 µM in the assay on SK-MEL-2 melanoma and 34.6 µM in the assay with U251 CNS.

As to `CCSc1nc(COC(=O)NC)c(COC(=O)NC)n1C`, the TGI in the assay on MALME-3M melanoma is greater than 100 µM; with CCRF-CEM leukemia, greater than 100 µM; in the assay with HL-60(TB) leukemia, greater than 100 µM; in the assay with CAKI-1 renal it was greater than 78.2 µM; with OVCAR-5 ovarian, greater than 100 µM; in the assay on SNB-19 CNS, greater than 100 µM. The TGI with SNB-75 CNS, in the assay with LOX IMVI melanoma, in the assay with SK-MEL-2 melanoma and in the assay with U251 CNS was greater than 100 µM each time.

Turning to `O=C(O)CCC1CCc2cccc3occ1c23` (stereo not given), the TGI in the assay with MALME-3M melanoma, in the assay on CCRF-CEM leukemia, in the assay on HL-60(TB) leukemia, in the assay on CAKI-1 renal, in the assay on OVCAR-5 ovarian and in the assay with SNB-19 CNS was greater than 100 µM in each case. For the same compound, the TGI in the assay on SNB-75 CNS, in the assay with LOX IMVI melanoma, with SK-MEL-2 melanoma and in the assay with U251 CNS was greater than 100 µM throughout.

Take `Cc1cccc(C)c1NC(=O)CCCC(=O)C1CCC/C1=N\NC(=O)C(=O)NN` (stereo not given): the TGI with MALME-3M melanoma, with CCRF-CEM leukemia, in the assay on HL-60(TB) leukemia, in the assay with CAKI-1 renal, with OVCAR-5 ovarian and in the assay on SNB-19 CNS was greater than 100 µM throughout. The TGI in the assay on SNB-75 CNS, in the assay with LOX IMVI melanoma, in the assay on SK-MEL-2 melanoma and in the assay on U251 CNS was greater than 100 µM in each case.

Turning to `Cn1cc(-c2ccc(CNc3cc(-c4cnc5cc(OCCCN6CCCC6)ccn45)ncn3)cc2)cn1`, the GI50 with MALME-3M melanoma is 1.28 µM; with CCRF-CEM leukemia, 2.72 µM; with HL-60(TB) leukemia, 2.31 µM; with CAKI-1 renal, 1.65 µM; in the assay on OVCAR-5 ovarian, 2.04 µM; in the assay on SNB-19 CNS, 2.5 µM. Moreover, the GI50 in the assay on SNB-75 CNS was 1.79 µM; in the assay with LOX IMVI melanoma it was 1.75 µM; in the assay on SK-MEL-2 melanoma it was 15.5 µM; in the assay with U251 CNS, 1.43 µM. Moreover, the TGI in the assay with MALME-3M melanoma was 2.94 µM; in the assay on CCRF-CEM leukemia it was greater than 100 µM; with HL-60(TB) leukemia it was 6.94 µM; in the assay on CAKI-1 renal, 3.15 µM; with OVCAR-5 ovarian, 4.16 µM; in the assay with SNB-19 CNS, 8.43 µM. In addition, the TGI was determined as 7.78 µM with SNB-75 CNS, 3.4 µM in the assay on LOX IMVI melanoma, 30.4 µM with SK-MEL-2 melanoma and 2.77 µM in the assay with U251 CNS.

In the case of `O=C(Cc1ccccc1)N/N=C(\C1=Nc2ccc([N+](=O)[O-])cc2NC1O)C(O)c1ccc([N+](=O)[O-])cc1` (stereo not given), the TGI with MALME-3M melanoma, in the assay with CCRF-CEM leukemia, in the assay on HL-60(TB) leukemia, in the assay with CAKI-1 renal, in the assay with OVCAR-5 ovarian and in the assay with SNB-19 CNS was greater than 100 µM each time. Moreover, the TGI in the assay on SNB-75 CNS, in the assay on LOX IMVI melanoma, in the assay on SK-MEL-2 melanoma and with U251 CNS was greater than 100 µM throughout.

Take `NCc1ccc(-n2c(-c3nonc3N)nc3cnccc32)cc1`: the GI50 with MALME-3M melanoma is greater than 25 µM; in the assay with CCRF-CEM leukemia, 6.26 µM; with HL-60(TB) leukemia, greater than 11.8 µM; in the assay on CAKI-1 renal, 2.27 µM; with OVCAR-5 ovarian it was 11.7 µM; with SNB-19 CNS it was greater than 25 µM. The GI50 in the assay with SNB-75 CNS is 0.291 µM; in the assay with LOX IMVI melanoma, 17.1 µM; in the assay with SK-MEL-2 melanoma, greater than 25 µM; in the assay with U251 CNS, 8.94 µM. The TGI in the assay with MALME-3M melanoma, in the assay with CCRF-CEM leukemia, in the assay with HL-60(TB) leukemia, with CAKI-1 renal, in the assay on OVCAR-5 ovarian and in the assay with SNB-19 CNS was greater than 25 µM each time. In addition, the TGI with SNB-75 CNS, in the assay with LOX IMVI melanoma, with SK-MEL-2 melanoma and in the assay on U251 CNS was greater than 25 µM in each case.

As for `CC(C)(Br)C(=O)/C=C/c1ccccc1`, the TGI in the assay with MALME-3M melanoma came out at 10.2 µM; with CCRF-CEM leukemia, 1.63 µM; in the assay with HL-60(TB) leukemia, 29 µM; in the assay with CAKI-1 renal it was 17.3 µM; in the assay with OVCAR-5 ovarian it was 19.7 µM; with SNB-19 CNS it was 78.3 µM. Also, the TGI came out at 32.6 µM in the assay on SNB-75 CNS, 9.75 µM with LOX IMVI melanoma, 3.96 µM with SK-MEL-2 melanoma and 20.5 µM in the assay on U251 CNS.

As to `Cc1cccc(C(C)(C)C)c1NC(=O)C(=O)C(c1cnc2ccccc2n1)[N+](=O)[O-]` (stereo not given), the TGI with MALME-3M melanoma, in the assay on CCRF-CEM leukemia, in the assay on HL-60(TB) leukemia, with CAKI-1 renal, with OVCAR-5 ovarian and in the assay on SNB-19 CNS was greater than 100 µM throughout. Besides, the TGI in the assay with SNB-75 CNS, with LOX IMVI melanoma, with SK-MEL-2 melanoma and with U251 CNS was greater than 100 µM throughout.
